Assays:
Conditions in all cases: exposure time: 72 h
E34 [1] = patient-derived glioblastoma stem cells of proneural subtype; assay: phenotypic distance (Euclidean, principal components) from DMSO controls (arbitrary units); higher = stronger morphological change
E13 [2] = patient-derived glioblastoma stem cells of classical subtype; assay: as above
E31 [3] = patient-derived glioblastoma stem cells of proneural subtype; assay: as above
FT3469 [4] = normal neural stem cell line; assay: as above
E28 [5] = patient-derived glioblastoma stem cells of classical subtype; assay: as above
E57 [6] = patient-derived glioblastoma stem cells of mesenchymal subtype; assay: as above
E21 [7] = patient-derived glioblastoma stem cells of mesenchymal subtype; assay: as above
E34 [8] = assay: surviving fraction (nuclei count normalised to DMSO); higher = more cells surviving (less toxic)
E13 [9] = assay: as above
E31 [10] = assay: as above
FT3469 [11] = assay: as above
E28 [12] = assay: as above
E57 [13] = assay: as above
E21 [14] = assay: as above
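Wherever phenotypic distance (Euclidean, principal components) from DMSO controls is given: cell Painting imaging in 384-well plates, CellProfiler features reduced to at least 20 principal components, Euclidean distance versus same-plate DMSO vehicle wells (0.1% v/v), median over six images per well.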
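Wherever surviving fraction (nuclei count normalised to DMSO) is given: nuclei counted by high-content imaging of Hoechst-stained cells in laminin-coated 384-well plates, relative to 0.1% DMSO vehicle wells, with staurosporine as cell-death control.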

CC1CNc2c(cccc2S(=O)(=O)N[C@@H](CCCNC(=N)N)C(=O)N2CC[C@@H](C)C[C@@H]2C(=O)O)C1 (stereo partly drawn) [Argatroban]
phenotypic distance (E34 [1]; 4.1 nM): 0.682 | phenotypic distance (E34 [1]; 12.3 nM): 0.667 | phenotypic distance (E34 [1]; 37 nM): 0.842 | phenotypic distance (E34 [1]; 111.1 nM): 0.535 | phenotypic distance (E34 [1]; 333.3 nM): 0.743 | phenotypic distance (E34 [1]; 1000 nM): 1.04 | phenotypic distance (E34 [1]; 3000 nM): 1.26 | phenotypic distance (E13 [2]; 4.1 nM): 0.936 | phenotypic distance (E13 [2]; 12.3 nM): 1.03 | phenotypic distance (E13 [2]; 37 nM): 0.706 | phenotypic distance (E13 [2]; 111.1 nM): 0.818 | phenotypic distance (E13 [2]; 333.3 nM): 0.637 | phenotypic distance (E13 [2]; 1000 nM): 0.667 | phenotypic distance (E13 [2]; 3000 nM): 0.543 | phenotypic distance (E31 [3]; 4.1 nM): 0.911 | phenotypic distance (E31 [3]; 12.3 nM): 0.664 | phenotypic distance (E31 [3]; 37 nM): 0.863 | phenotypic distance (E31 [3]; 111.1 nM): 0.601 | phenotypic distance (E31 [3]; 333.3 nM): 2.25 | phenotypic distance (E31 [3]; 1000 nM): 0.919 | phenotypic distance (E31 [3]; 3000 nM): 0.822 | phenotypic distance (FT3469 [4]; 4.1 nM): 3.82 | phenotypic distance (FT3469 [4]; 12.3 nM): 1.39 | phenotypic distance (FT3469 [4]; 37 nM): 0.709 | phenotypic distance (FT3469 [4]; 111.1 nM): 0.753 | phenotypic distance (FT3469 [4]; 333.3 nM): 0.744 | phenotypic distance (FT3469 [4]; 1000 nM): 0.391 | phenotypic distance (FT3469 [4]; 3000 nM): 1.07 | phenotypic distance (E28 [5]; 4.1 nM): 0.894 | phenotypic distance (E28 [5]; 12.3 nM): 0.602 | phenotypic distance (E28 [5]; 37 nM): 0.844 | phenotypic distance (E28 [5]; 111.1 nM): 0.794 | phenotypic distance (E28 [5]; 333.3 nM): 0.356 | phenotypic distance (E28 [5]; 1000 nM): 0.549 | phenotypic distance (E28 [5]; 3000 nM): 0.893 | phenotypic distance (E57 [6]; 4.1 nM): 0.489 | phenotypic distance (E57 [6]; 12.3 nM): 0.826 | phenotypic distance (E57 [6]; 37 nM): 0.498 | phenotypic distance (E57 [6]; 111.1 nM): 0.438 | phenotypic distance (E57 [6]; 333.3 nM): 0.495 | phenotypic distance (E57 [6]; 1000 nM): 0.711 | phenotypic distance (E57 [6]; 3000 nM): 0.963 | phenotypic distance (E21 [7]; 4.1 nM): 1.43 | phenotypic distance (E21 [7]; 12.3 nM): 0.727 | phenotypic distance (E21 [7]; 37 nM): 1.18 | phenotypic distance (E21 [7]; 111.1 nM): 0.876 | phenotypic distance (E21 [7]; 333.3 nM): 1.26 | phenotypic distance (E21 [7]; 1000 nM): 1.01 | phenotypic distance (E21 [7]; 3000 nM): 1.26 | surviving fraction (E34 [8]; 4.1 nM): 1.04 | surviving fraction (E34 [8]; 12.3 nM): 1.04 | surviving fraction (E34 [8]; 37 nM): 0.976 | surviving fraction (E34 [8]; 111.1 nM): 0.935 | surviving fraction (E34 [8]; 333.3 nM): 1.05 | surviving fraction (E34 [8]; 1000 nM): 1.13 | surviving fraction (E34 [8]; 3000 nM): 0.923 | surviving fraction (E13 [9]; 4.1 nM): 0.887 | surviving fraction (E13 [9]; 12.3 nM): 0.726 | surviving fraction (E13 [9]; 37 nM): 1.06 | surviving fraction (E13 [9]; 111.1 nM): 0.787 | surviving fraction (E13 [9]; 333.3 nM): 1.03 | surviving fraction (E13 [9]; 1000 nM): 0.955 | surviving fraction (E13 [9]; 3000 nM): 1.04 | surviving fraction (E31 [10]; 4.1 nM): 1.08 | surviving fraction (E31 [10]; 12.3 nM): 0.893 | surviving fraction (E31 [10]; 37 nM): 0.911 | surviving fraction (E31 [10]; 111.1 nM): 0.95 | surviving fraction (E31 [10]; 333.3 nM): 0.959 | surviving fraction (E31 [10]; 1000 nM): 1.04 | surviving fraction (E31 [10]; 3000 nM): 1.12 | surviving fraction (FT3469 [11]; 4.1 nM): 0.74 | surviving fraction (FT3469 [11]; 12.3 nM): 0.878 | surviving fraction (FT3469 [11]; 37 nM): 0.961 | surviving fraction (FT3469 [11]; 111.1 nM): 0.906 | surviving fraction (FT3469 [11]; 333.3 nM): 1.09 | surviving fraction (FT3469 [11]; 1000 nM): 0.99 | surviving fraction (FT3469 [11]; 3000 nM): 0.886 | surviving fraction (E28 [12]; 4.1 nM): 0.975 | surviving fraction (E28 [12]; 12.3 nM): 0.963 | surviving fraction (E28 [12]; 37 nM): 0.877 | surviving fraction (E28 [12]; 111.1 nM): 1.3 | surviving fraction (E28 [12]; 333.3 nM): 1.01 | surviving fraction (E28 [12]; 1000 nM): 1.14 | surviving fraction (E28 [12]; 3000 nM): 1.16 | surviving fraction (E57 [13]; 4.1 nM): 1.01 | surviving fraction (E57 [13]; 12.3 nM): 1.03 | surviving fraction (E57 [13]; 37 nM): 0.918 | surviving fraction (E57 [13]; 111.1 nM): 1.04 | surviving fraction (E57 [13]; 333.3 nM): 1.04 | surviving fraction (E57 [13]; 1000 nM): 1.01 | surviving fraction (E57 [13]; 3000 nM): 0.888 | surviving fraction (E21 [14]; 4.1 nM): 0.935 | surviving fraction (E21 [14]; 12.3 nM): 0.953 | surviving fraction (E21 [14]; 37 nM): 0.963 | surviving fraction (E21 [14]; 111.1 nM): 0.778 | surviving fraction (E21 [14]; 333.3 nM): 1.07 | surviving fraction (E21 [14]; 1000 nM): 1.08 | surviving fraction (E21 [14]; 3000 nM): 1.11

Source: the supplement of paper PMC13207355
